“Also recorded” adds a separate entry of the source.
Tests used:
[1] = test system: SCC-25; test: MTT toxicity assay, SCC-25; assay type: cell-based, human; conditions: 24 hour
[2] = test system: SiHa; test: MTT toxicity assay, SiHa; assay type: cell-based; conditions: 24 hour
[3] = test system: squamous carcinoma cell line SCC-25; test: Scratch assay, SCC-25; assay type: cell-based, human
Protocol: (§1) To approximate in vivo epidermal cell migration, during which epidermal cells move as sheets, scratch assays were utilized. Normal human keratinocytes were plated to confluence in the presence of either of the inhibitors (10 μM) or DMSO, and the cells allowed to attach for 6 hours. A 2 mm scratch was produced in the culture, marked, and the migration of the cells studied for the following 24 to 48 hours. […] (FIG. 7B.) When scratched plates were subsequently washed after 24 hours of incubation with the inhibitors, and incubated for an additional 24 hours in the absence of inhibitors, normal migration equivalent to that of the control conditions was noted.
In addition, squamous carcinoma cell line SCC-25 (ATCC Number CRL-1628) was examined by the described scratch assay using the inhibitors. […] Washing out of the inhibitors for an additional 48 hour time period restored normal SCC migration.
(§2) A dose-dependent study of Compound 2 was performed on keratinocyte cultures. In these assays, a scratch was placed in a confluent layer of cells, and the migration of the cells into the scratched area was assessed after 48 hours. In the absence of inhibitor, normal immortalized keratinocytes (NIK) migrated into the scratch area.

[4] = test system: laminin 5 processing in squamous cell carcinoma cell line SCC-15; test: Laminin 5 processing in SCC-15 cells, western blot; assay type: cell-based; conditions: 1, 5, 10 μM; 48 hours
Protocol: (§3) This is shown by western blot analysis. […] (FIG. 13: lane 1, control; lane 2, 1 μM; lane 3, 5 μM; lane 4, 10 μM.)

[5] = biological target: mTll-1 (Homo sapiens, UniProt O43897); test: Cleavage of unprocessed laminin 5 matrix by mTll-1, western blot; assay type: biochemical; conditions: 10 μM
Protocol: (§4) The processing of laminin 5 by various BMP-1 related proteins was examined. […] The cells were then removed from the culture dish by 20 mM ammonium sulfate, the dish was washed, and the matrix was incubated in increasing amounts of each BMP-1 related protein. After proteolytic digestion, the matrix was extracted and examined by western blot analysis. […] BMP-1 and mTLL-2 cleaved the γ2 chain of laminin 5.

[6] = test system: KLASV cells
Protocol: To allow for attachment to the tissue culture dish, KLASV cells were plated in tissue culture wells previously coated with type I collagen.

[7] = test system: laminin 5 processing in normal immortalized keratinocytes (NIK); test: Laminin 5 processing in normal immortalized keratinocytes, western blot; assay type: cell-based; conditions: 1, 5, 8 μM; 48 hours
[8] = test system: laminin 5 processing in squamous cell carcinoma cell line SCC-25; test: Laminin 5 processing in SCC-25 cells, western blot; assay type: cell-based, human; conditions: 1, 5, 10 μM; 48 hours
Protocol: as §3

[9] = test system: SiHa cells; test: Matrigel invasion chamber, SiHa; assay type: cell-based; conditions: 24 hours; cell line unable to produce laminin 5
Protocol: (§5) The assay is a standard in vitro measure of tumor cell invasion. Tumor cells are plated atop a layer of fabricated basement membrane and allowed to migrate over the course of 24 hours towards conditioned 3T3 medium, which contains a chemo-attractant, located in a lower chamber. […] (FIG. 25.)

[10] = test system: SCC-15; test: MTT toxicity assay, SCC-15; assay type: cell-based; conditions: 24 hour
[11] = test system: normal keratinocytes; test: Keratinocyte detachment by trypsin; assay type: cell-based; conditions: cultured 24 hours with compound; 0.05% trypsin
From the text: The mode of attachment of keratinocytes to processed and unprocessed laminin 5 was examined by two methods. […] (FIG. 20.)

[12] = test system: SCC-15 cells; test: Matrigel invasion chamber, SCC-15; assay type: cell-based; conditions: 5 μM; 24 hours
Protocol: as §5

[13] = biological target: MT1-MMP (Homo sapiens, UniProt P50281); test: Inhibition of MT1-MMP activity; assay type: biochemical
[14] = test system: cultured cells; test: Toxicity to cultured cells; assay type: cell-based
[15] = test system: normal human keratinocytes; test: Scratch assay, normal human keratinocytes; assay type: cell-based; conditions: 10 μM; 24 hours
Protocol: as §1

[16] = biological target: MMP-9 (Homo sapiens, UniProt P14780); test: Inhibition of MMP-9 activity; assay type: biochemical
[17] = test system: laminin 5 processing in normal human keratinocytes; test: Laminin 5 processing in keratinocyte cultures, western blot; assay type: cell-based
Protocol: Each of the inhibitors was added to freshly plated cultures of normal human keratinocytes. After 16 hours, laminin 5 was extracted from cultures and analyzed by western blot using a polyclonal antibody to laminin 5.

[18] = test system: normal immortalized keratinocytes (NIK); test: Scratch assay, normal immortalized keratinocytes; assay type: cell-based
Protocol: as §2

[19] = test system: squamous carcinoma cells; test: Migration of squamous carcinoma cells (general statement); assay type: cell-based
[20] = biological target: T1, MMP-2 (Homo sapiens, UniProt P08253); test: Inhibition of MMP-2 activity; assay type: biochemical
T1 sequence (P08253 110-660): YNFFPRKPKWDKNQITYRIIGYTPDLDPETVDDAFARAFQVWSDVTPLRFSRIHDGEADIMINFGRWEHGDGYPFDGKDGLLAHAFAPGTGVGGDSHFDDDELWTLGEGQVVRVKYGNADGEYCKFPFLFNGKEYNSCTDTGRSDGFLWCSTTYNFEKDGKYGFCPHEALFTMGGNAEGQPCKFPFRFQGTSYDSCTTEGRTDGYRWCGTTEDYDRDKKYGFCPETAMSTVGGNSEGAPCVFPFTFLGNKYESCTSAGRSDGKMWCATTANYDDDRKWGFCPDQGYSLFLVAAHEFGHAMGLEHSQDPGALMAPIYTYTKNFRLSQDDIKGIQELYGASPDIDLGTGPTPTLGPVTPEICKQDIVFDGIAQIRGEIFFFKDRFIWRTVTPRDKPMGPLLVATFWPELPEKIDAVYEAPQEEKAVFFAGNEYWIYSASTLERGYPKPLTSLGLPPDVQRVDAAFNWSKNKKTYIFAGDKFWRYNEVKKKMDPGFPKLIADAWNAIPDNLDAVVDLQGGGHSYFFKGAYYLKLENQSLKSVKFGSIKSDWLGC

[21] = test system: keratinocytes; test: Keratinocyte migration, Boyden chambers; assay type: cell-based
Protocol: Compounds 1 and 2 were used to examine the functional effects of processing by BMP-1 related proteins on keratinocyte migration. […] Keratinocytes were analyzed for migration in Boyden chambers in the presence of increasing amounts of the inhibitors. […] (Koivunen et al. (1999) Nature Biotechnology 17:768-774.)

[22] = test system: SCC-25 cells; test: Matrigel invasion chamber, SCC-25; assay type: cell-based, human; conditions: 5 μM; 24 hours
Protocol: as §5

[23] = test system: squamous cell carcinoma cell line SCC-15; test: Scratch assay, SCC-15; assay type: cell-based; conditions: 1, 5, 10 μM; 48 hours
[24] = biological target: T2, MMP-1 (Homo sapiens, UniProt P03956); test: Inhibition of MMP-1 activity; assay type: biochemical
T2 sequence (P03956 100-469): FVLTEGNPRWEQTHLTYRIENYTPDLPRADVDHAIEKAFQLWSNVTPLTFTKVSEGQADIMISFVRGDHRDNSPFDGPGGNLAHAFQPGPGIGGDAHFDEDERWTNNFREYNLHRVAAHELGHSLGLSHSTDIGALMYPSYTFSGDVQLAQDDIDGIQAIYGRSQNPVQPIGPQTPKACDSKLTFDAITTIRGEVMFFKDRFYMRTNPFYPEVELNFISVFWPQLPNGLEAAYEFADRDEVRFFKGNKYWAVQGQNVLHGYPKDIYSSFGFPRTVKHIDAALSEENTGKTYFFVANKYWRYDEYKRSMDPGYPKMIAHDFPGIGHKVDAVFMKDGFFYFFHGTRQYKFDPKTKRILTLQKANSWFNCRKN

[25] = biological target: mTll-2 (Homo sapiens, UniProt Q9Y6L7); test: Cleavage of unprocessed laminin 5 matrix by mTll-2, western blot; assay type: biochemical; conditions: 10 μM
Protocol: as §4

mTll-2, sequence (Q9Y6L7 150-1015): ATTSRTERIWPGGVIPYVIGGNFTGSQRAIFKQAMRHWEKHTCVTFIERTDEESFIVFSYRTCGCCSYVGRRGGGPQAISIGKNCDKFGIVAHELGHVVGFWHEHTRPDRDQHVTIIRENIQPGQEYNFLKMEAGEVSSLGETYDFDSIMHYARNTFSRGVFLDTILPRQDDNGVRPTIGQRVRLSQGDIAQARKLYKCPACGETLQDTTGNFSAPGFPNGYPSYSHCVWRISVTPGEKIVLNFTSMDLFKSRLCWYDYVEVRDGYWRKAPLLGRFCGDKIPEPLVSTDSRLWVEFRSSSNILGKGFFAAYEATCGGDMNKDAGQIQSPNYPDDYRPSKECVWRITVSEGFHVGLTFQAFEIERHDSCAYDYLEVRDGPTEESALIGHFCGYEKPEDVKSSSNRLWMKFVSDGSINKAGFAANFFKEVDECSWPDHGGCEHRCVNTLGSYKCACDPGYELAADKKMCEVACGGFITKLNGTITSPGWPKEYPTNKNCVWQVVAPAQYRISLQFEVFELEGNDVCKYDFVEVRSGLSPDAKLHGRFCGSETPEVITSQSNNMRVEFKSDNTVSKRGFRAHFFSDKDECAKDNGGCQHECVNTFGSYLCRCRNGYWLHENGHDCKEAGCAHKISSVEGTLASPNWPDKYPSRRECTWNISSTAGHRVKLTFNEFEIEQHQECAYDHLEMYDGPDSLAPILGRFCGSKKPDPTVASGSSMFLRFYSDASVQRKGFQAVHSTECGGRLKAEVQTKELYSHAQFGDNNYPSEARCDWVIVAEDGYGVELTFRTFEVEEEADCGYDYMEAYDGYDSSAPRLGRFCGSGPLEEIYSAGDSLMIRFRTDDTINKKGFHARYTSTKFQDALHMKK
MMP-9, sequence (P14780 94-707, species assumed): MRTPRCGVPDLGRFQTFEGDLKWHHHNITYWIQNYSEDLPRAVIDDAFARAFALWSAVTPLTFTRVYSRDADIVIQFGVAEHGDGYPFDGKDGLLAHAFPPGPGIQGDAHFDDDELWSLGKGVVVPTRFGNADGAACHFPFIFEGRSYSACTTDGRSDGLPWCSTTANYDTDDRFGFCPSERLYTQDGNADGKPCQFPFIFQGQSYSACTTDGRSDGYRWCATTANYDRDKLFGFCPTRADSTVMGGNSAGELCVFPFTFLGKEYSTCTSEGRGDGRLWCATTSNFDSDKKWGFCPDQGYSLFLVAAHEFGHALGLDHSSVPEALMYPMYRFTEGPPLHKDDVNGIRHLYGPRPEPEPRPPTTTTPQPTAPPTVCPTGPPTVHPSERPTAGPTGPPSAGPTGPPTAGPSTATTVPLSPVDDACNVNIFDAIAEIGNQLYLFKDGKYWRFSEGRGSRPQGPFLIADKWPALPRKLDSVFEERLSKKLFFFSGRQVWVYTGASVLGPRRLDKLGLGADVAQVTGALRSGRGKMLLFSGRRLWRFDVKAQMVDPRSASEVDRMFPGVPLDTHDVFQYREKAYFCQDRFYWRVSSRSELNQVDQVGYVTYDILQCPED
mTll-1, sequence (O43897 148-1013): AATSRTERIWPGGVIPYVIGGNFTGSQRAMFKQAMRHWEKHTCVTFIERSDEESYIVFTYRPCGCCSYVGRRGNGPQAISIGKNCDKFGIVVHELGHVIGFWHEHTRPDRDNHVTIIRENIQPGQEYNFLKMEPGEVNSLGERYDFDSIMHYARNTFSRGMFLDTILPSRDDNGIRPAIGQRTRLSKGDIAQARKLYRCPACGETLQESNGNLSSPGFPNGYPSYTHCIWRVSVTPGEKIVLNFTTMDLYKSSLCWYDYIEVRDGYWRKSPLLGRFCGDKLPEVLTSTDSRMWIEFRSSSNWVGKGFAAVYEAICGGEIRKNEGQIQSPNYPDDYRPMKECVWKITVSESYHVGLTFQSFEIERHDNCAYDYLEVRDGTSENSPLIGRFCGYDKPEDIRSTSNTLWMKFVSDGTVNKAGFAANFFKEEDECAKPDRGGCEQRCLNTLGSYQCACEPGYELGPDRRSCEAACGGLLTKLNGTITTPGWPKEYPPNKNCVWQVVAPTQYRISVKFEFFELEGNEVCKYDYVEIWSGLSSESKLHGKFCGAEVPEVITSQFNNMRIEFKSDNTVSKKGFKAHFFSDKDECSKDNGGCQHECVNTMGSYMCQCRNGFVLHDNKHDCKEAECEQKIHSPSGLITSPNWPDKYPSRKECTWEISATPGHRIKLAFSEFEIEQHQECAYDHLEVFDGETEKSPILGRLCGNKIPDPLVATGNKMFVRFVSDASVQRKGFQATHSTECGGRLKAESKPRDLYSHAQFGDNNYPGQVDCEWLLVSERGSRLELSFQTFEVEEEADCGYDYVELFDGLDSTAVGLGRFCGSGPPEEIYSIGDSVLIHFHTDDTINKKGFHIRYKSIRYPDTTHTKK

Compound: COc1ccc(CCN(CCC(=O)NO)S(=O)(=O)c2ccc(NC(=O)NCc3ccccc3)cc2)cc1 [Compound 2]
- MTT toxicity, SCC-25 [1]: little or no toxicity
- MTT toxicity, SiHa [2]: little or no toxicity
- SCC-25 migration response compared with keratinocytes ([3]; 10 μM): identical response
- inhibition of SCC cell migration on type I collagen coated versus non-coated dishes ([3]; 10 μM, 48 hr): equally effective at inhibiting cell migration
- SCC-25 migration into the scratch ([3]; 10 μM, up to 48 hours): effective at preventing SCC-25 migration
- migration of SCC-25 into the scratch area, dose dependence ([3]; 1, 5, 10 μM, 48 hours): dose-dependent effect
- processing of laminin 5 in SCC-15, dose dependence [4]: dose-dependent effect
- cleavage of laminin 5 α3 chain by mTLL-1 [5]: inhibited cleavage of laminin 5 α3 chain
- migration of KLASV cells ([6]; type I collagen coated dishes, 10 μM, 48 hr): not inhibited
- migration of KLASV cells into the scratch ([6]; type I collagen coated wells, 24 hours, compared to non-treated control): significant migration into the scratch
- processing of laminin 5 in NIK, dose dependence [7]: dose-dependent effect
- processing of laminin 5 in SCC-25, dose dependence [8]: dose-dependent effect
- invasion of SiHa cells [9]: not able to inhibit the invasion
- MTT toxicity, SCC-15 [10]: little or no toxicity
- resistance of treated cells to trypsin detachment [11]: more resistant to trypsin treatment
- invasion of SCC-15 cells [12]: able to inhibit the invasion
- inhibition of activity of MT1-MMP [13]: no inhibition
- toxicity to cultured cells at 100 times inhibitory levels ([14]; 100 times the concentration which inhibited BMP-1 activity): nontoxic
- toxic effect on cells ([14]; cell culture): nontoxic; also recorded: non-toxic; also recorded: no toxic effect on cells
- migration of keratinocytes into the scratch [15]: almost a complete lack of migration
- inhibition of activity of MMP-9 [16]: no inhibition
- processing of laminin 5 deposited by cultured keratinocytes ([17]; 10 μM): prevented processing of laminin 5
- level of expression of laminin 5 ([17]; 16 hours, western blot): did not significantly change
- processing of the α3 and γ2 chains of laminin 5 ([17]; 16 hours, western blot): completely inhibited
- laminin 5 α3 chain and γ2 chain processing, dose dependence ([17]; dose-dependent manner): inhibited laminin 5 α3 chain and γ2 chain processing
- inhibition of keratinocyte migration on type I collagen coated versus non-coated dishes ([18]; 10 μM, 48 hr): equally effective at inhibiting cell migration
- migration of NIK into the scratch area, dose dependence ([18]; 1, 5, 8 μM, 48 hours): dose-dependent inhibition of migration
- inhibition of migration of squamous carcinoma cells [19]: potently inhibit
- inhibition of activity of MMP-2 [20]: no inhibition
- inhibition of keratinocyte migration [21]: potently inhibit
- keratinocyte migration in transwells or over a scratch ([21]; 10 μM): almost complete lack of migration
- inhibition of keratinocyte migration, dose dependence ([21]; Boyden chamber and scratch assays): inhibition of KC migration in a dose-dependent manner
- dose required to achieve nearly complete inhibition of migration ([21]; Boyden chambers): 10 µM
- invasion of SCC-25 cells [22]: able to inhibit the invasion
- migration of SCC-15 into the scratch area, dose dependence [23]: dose-dependent effect
- inhibition of activity of MMP-1 [24]: no inhibition
- cleavage of laminin 5 α3 chain by mTLL-2 [25]: inhibited cleavage of laminin 5 α3 chain
- cleavage of laminin 5 γ2 chain by mTLL-2 [25]: inhibited cleavage of laminin 5 γ2 chain

From patent US20020076736A1, “Methods of affecting laminin 5 processing” (priority 2000, published 2002)
